{"source": "patent US8609413B2", "about": "“Neurons, astrocytes and oligodendrocytes differentiated from a mammalian pluripotent or neural stem cells exposed to a pyridine deriviative” (Research Development Foundation, priority 2007, dated 2013)", "key": {"[1]": {"tested_on": "HS401 human ES cells", "experiment": "Differentiation protocol 2 in HS401 cell line", "assay_type": "cell-based", "conditions": "3 μM vs DMSO", "description": "Two different protocols were used to induce neuronal differentiation of human ES cells. In the first protocol, human ES cells were mechanically dissociated into small aggregates and plated on laminin/polyornithine coated six-well plates. Cells were cultured 2 weeks in human SR medium (DMEM F-12 supplemented with 15% knockout serum (Gibco), non-essential amino acids, penicillin and streptomycin), followed by 4 weeks in N2 medium. Compounds were added throughout these first 6 weeks. Subsequently, cells were mechanically dissociated and replated on polyornithine/laminin-coated 6 well plates. Throughout the text, this first differentiation protocol will be referred to as “differentiation protocol 1”. The second differentiation protocol was derived from previously described differentiation conditions (Nat et al., 2007). In the second differentiation protocol, undifferentiated human ES cells were mechanically dissociated into small aggregates and cultured in suspension on low-attachment six-well plates. For the first 4 days, they were cultured in neuronal induction medium (DMEM F-12, N2 supplement, penicillin and streptomycin), which was changed to simple neuronal proliferation medium (DMEM F-12, N2 supplement, 20 ng/ml bFGF, penicillin and streptomycin) for 2 additional days. […]"}, "[2]": {"tested_on": "human ES cell-derived neural precursors", "experiment": "Two step differentiation: precursors replated without compound in neuronal differentiation medium", "assay_type": "cell-based", "source_text": "To investigate the potential of neural precursors generated through phenazopyridine treatment, cells exposed to DMSO or phenazopyridine for four weeks as in Example 2 were replated at low density (5×10^3 cells/cm^2) on polyornithine/laminin coated support in neuronal differentiation medium, and investigated for their phenotype at different time points. Cells were then immunostained for neuronal markers and alkaline phosphatase (marking undifferentiated ES cells) after one week and four weeks of differentiation. Immunostaining was performed for nestin, β3-tubulin, Sox1, Pax6, vimentin, GFAP, CNPase, v-Glut1, GAD67, tyrosine hydroxylase and alkaline phosphatase. […] Two different protocols were used to induce neuronal differentiation of human ES cells. In the first protocol, human ES cells were mechanically dissociated into small aggregates and plated on laminin/polyornithine coated six-well plates. Cells were cultured 2 weeks in human SR medium (DMEM F-12 supplemented with 15% knockout serum (Gibco), non-essential amino acids, penicillin and streptomycin), followed by 4 weeks in N2 medium. Compounds were added throughout these first 6 weeks. Subsequently, cells were mechanically dissociated and replated on polyornithine/laminin-coated 6 well plates. Throughout the text, this first differentiation protocol will be referred to as “differentiation protocol 1”. The second differentiation protocol was derived from previously described differentiation conditions (Nat et al., 2007). In the second differentiation protocol, undifferentiated human ES cells were mechanically dissociated into small aggregates and cultured in suspension on low-attachment six-well plates. For the first 4 days, they were cultured in neuronal induction medium (DMEM F-12, N2 supplement, penicillin and streptomycin), which was changed to simple neuronal proliferation medium (DMEM F-12, N2 supplement, 20 ng/ml bFGF, penicillin and streptomycin) for 2 additional days. Subsequently, aggregates were plated on polyornithine/laminin-coated six-well plates and maintained in simple neuronal proliferation medium for 7 days. Cells were then mechanically dissociated and replated in N2 medium at a density of 2×10^4 cells per cm^2 for two additional weeks. Compounds were added throughout these first 4 weeks. Cells were then replated at a density of 5′000 cells per cm^2 in neuronal differentiation medium (Neurobasal medium, B-27 supplement, BDNF (10 ng/ml), penicillin and streptomycin). Throughout the text, this second differentiation protocol will be referred as to “differentiation protocol 2”. […] To investigate the potential of neuronal precursors generated through phenazopyridine treatment, the inventors devised a two step differentiation protocol. Cells were first treated with 3 μM phenazopyridine for 4 weeks and subsequently replated in the absence of phenazopyridine. For the second step, the inventors cultured cells at low density (5×10^3 cells/cm^2) on polyornithine/laminin-coated support in neuronal differentiation medium and investigated their phenotype at different time points in three independent experiments."}}, "note": "“Also recorded” adds a separate entry of the source."}
{"smiles": "Nc1ccc(/N=N/c2ccccc2)c(N)n1", "note": "[phenazopyridine]", "values": [{"measurement": "morphology and dissociation observations in HS401 cell line", "setting": "[1]", "result": "confirmed"}, {"measurement": "phenotype 4 weeks after replating", "setting": "[2]; 3 μM for 4 weeks, then 4 weeks without compound", "result": "formed networks of neurons, astrocytes and oligodendrocytes; also recorded: slow-growing cell clusters homogeneously positive for nestin, β3-tubulin, Sox1 and vimentin, together with more mature neurons, astrocytes and oligodendrocyte progenitors"}, {"measurement": "subtypes of neurons", "setting": "[2]; 3 μM for 4 weeks, then one week without compound", "result": "mainly glutamatergic, GABAergic and rarely dopaminergic neurons; also recorded: glutamatergic, GABAergic and—more rarely—TH-positive neurons"}, {"measurement": "phenotype one week after replating", "setting": "[2]; 3 μM for 4 weeks, then replated without compound", "result": "started to differentiate into neurons; also recorded: relatively homogenous monolayer of neural precursors and early neurons with short neurites"}, {"measurement": "alkaline phosphatase-positive (undifferentiated ES) cells", "setting": "[2]; after replating, vs control", "result": "never detected alkaline phosphatase-positive cells"}, {"measurement": "astrocytes or oligodendrocyte precursors (GFAP, CNPase immunostaining)", "setting": "[2]; one week after replating", "result": "did not observe the presence of astrocytes or oligodendrocytes precursors"}]}
